US5707620A (priority 1995, dated 1998)
Entries after “also recorded” stand apart in the source; their conditions may differ. *1 amine or outer side, *2 acyl side, *3 side chain or, on linkers, in order; H or OH if unused. Where a SMILES comes first, the peptide text is derived from it. Where no end group is shown, it is not given here. [ ]: non-standard residue; d: D form. The star is where a group is joined. pNA = O=[N+]([O-])c1ccc(N*)cc1; Tos = Cc1ccc(S(=O)(=O)*)cc1; CO = O=C([*:1])[*:2]

Key:
[1] = target: T1, Lys-gingipain (Porphyromonas gingivalis, UniProt B2RLK2, A715G/D467N/G568E/I573V/L455V); assay type: biochemical
[2] = tested on: Arg-gingipain; assay type: biochemical, Porphyromonas gingivalis
[3] = tested on: anti-peptide antibody; conditions: rabbit, in vivo
[4] = tested on: anti-protein antibodies; conditions: rabbit, in vivo
[5] = target: T1, Lys-gingipain; assay type: biochemical; remark: listed apart in the source
[6] = tested on: sheep red blood cells; assay type: cell-based
[7] = tested on: Human plasma; conditions: in vivo
[8] = tested on: Arg-gingipain; conditions: cited from earlier work
[9] = target: T1, Lys-gingipain; assay type: biochemical; remark: listed apart in the source

Molecule: O=C(O)CN(CCN(CC(=O)O)CC(=O)O)CC(=O)O [EDTA, ethylenediamine-tetraacetic acid]
- % Activity [1]: 90%
- inhibition of Lys-gingipain activity (in words) [1]: failed to inhibit; also recorded: not sensitive to inhibition; also recorded: resistant to inhibition; also recorded: insensitive
- inhibition of Arg-gingipain (in words) [2]: effective inhibitors

Molecule: MAP-attached peptide: first 15 N-Terminal amino acids of 60 kDa catalytic subunit attached to the multiple antigen peptide (MAP) resin (DVYTDHGDLYNTPVR; not fully specified)
- anti-peptide antibody titer [3]: high
- antibody response against the protein [4]: quite low

Molecule: Cc1ccc(S(=O)(=O)NCC(=O)N2CCC[C@H]2C(=O)N[C@@H](CCCCN)C(=O)Nc2ccc([N+](=O)[O-])cc2)cc1 [N-p-tosyl-Gly--Pro--Lys--pNa, N-p-tosyl-Gly-Pro-Lys-pNa] (Tos-Gly-Pro-Lys-pNA)
- Vmax [5]: 215 mmol/min
- ranking as substrate by ratio Vmax/Km [5]: best substrate

Molecule: Cc1ccc(S(=O)(=O)N[C@@H](CCCCN)C(=O)CCl)cc1 [TLCK, tosyl-L-lysine chloromethyl ketone]
- % Activity [1]: 0%
- inhibition of Lys-gingipain activity (in words) [1]: effective inhibitors of both enzymes; also recorded: sensitivity
- inhibition of Arg-gingipain (in words) [2]: effective inhibitors of both enzymes
- Hemagglutinating Titer of Gingipain-1 with effector [6]: NHA
- effect on the hemagglutinating activity of purified fractions (in words) [6]: neither did treatment by the irreversible proteinase inhibitor TLCK

Molecule: CC(C)[C@H](NC(=O)[C@H](CCCNC(=N)N)NC(=O)N[C@@H](Cc1ccccc1)C(=O)O)C(=O)N[C@H](C=O)CCCNC(=N)N [Antipain] ({Phe-CO}-Arg-Val-Arg-aldehyde)
- % Activity [1]: 98%
- inhibition of Lys-gingipain activity (in words) [1]: failed to inhibit; also recorded: not sensitive to inhibition; also recorded: resistant to inhibition
- inhibition of Arg-gingipain (in words) [2]: effective inhibitors

Molecule: N=C(N)NCCC[C@H](N)C(=O)O [arginine]
- Hemagglutinating Titer of Culture fluid with effector [6]: NHA
- Hemagglutinating Titer of Gingipain-1 with effector [6]: NHA
- Hemagglutinating Titer of HGP with effector [6]: NHA
- Hemagglutinating Titer of Lys-gingipain with effector [6]: NHA
- effect on the hemagglutinating activity of purified fractions (in words) [6]: inhibited by arginine

Molecule: [Cl-].[Cl-].[Zn+2] [ZnCl2]
- inhibition of Lys-gingipain activity (in words) [1]: failed to inhibit
- inhibition of Arg-gingipain (in words) [2]: effective inhibitors

Molecule: CC(C)C[C@H](NC(=O)[C@H](N)C(C)C)C(=O)N[C@@H](CCCCN)C(=O)Nc1ccc([N+](=O)[O-])cc1 [HD--Val--Leu--Lys--pNa, D-Val-Leu-Lys-pNA] (H-[dV]-Leu-Lys-pNA)
- Vmax [5]: 133 mmol/min

Molecule: NC(=O)CI [Iodoacetamide]
- inhibition of Lys-gingipain activity (in words) [1]: inhibited; also recorded: sensitivity

Molecule: CCN1C(=O)C=CC1=O [N-Ethylmaleimide]
- inhibition of Lys-gingipain activity (in words) [1]: inhibited

Molecule: NCC(=O)NCC(=O)O [Gly--Gly, Glycyl-glycine] (H-Gly-Gly-OH)
- % Activity [1]: 50%
- inhibition of Lys-gingipain activity (in words) [1]: inhibitory; also recorded: inhibited
- stimulation of hydrolysis of Bz-L-Arg-pNa by Arg-gingipain [2]: strongly stimulates

Molecule: O=C(O)CI [Iodoacetate]
- inhibition of Lys-gingipain activity (in words) [1]: inhibited; also recorded: sensitivity

Molecule: NCCCC[C@H](N)C(=O)O [lysine]
- Hemagglutinating Titer of Gingipain-1 with effector [6]: NHA

Molecule: c1cnc2c(c1)ccc1cccnc12
- effect on VPE by Lys-gingipain complex-treated human plasma [7]: increased

Molecule: CN1C(=O)C=CC1=O [N-methylmaleimide]
- inhibition of Lys-gingipain activity (in words) [1]: sensitivity

Molecule: NC(N)=NCCCC(NC(=O)C1CCCN1C(=O)C(N)Cc1ccccc1)C(=O)CCl (stereo not drawn) [FPRCK, Phe-Pro-Arg-CK]
- % Activity [1]: 5%
- inhibition of Lys-gingipain activity (in words) [1]: effective inhibitors of both enzymes; also recorded: sensitivity
- inhibition of Arg-gingipain (in words) [2]: effective inhibitors of both enzymes

Molecule: CC(C)C[C@H](NC(=O)[C@H]1O[C@@H]1C(=O)O)C(=O)NCCCCN=C(N)N [E-64, trans-epoxysuccinyl-L-leucylamide-(4-guanidino) butane]
- % Activity [1]: 100%
- inhibition of Lys-gingipain activity (in words) [1]: failed to inhibit Lys-gingipain at all; also recorded: not sensitive to inhibition; also recorded: resistant to inhibition
- inhibition of Arg-gingipain, previously shown [8]: inhibit Arg-gingipain, but not in the normal equimolar manner

Molecule: CC(=O)N[C@@H](CC(C)C)C(=O)N[C@@H](CC(C)C)C(=O)N[C@H](C=O)CCCNC(=N)N [Leupeptin]
- % Activity [1]: 100%
- inhibition of Lys-gingipain activity (in words) [1]: failed to inhibit; also recorded: not sensitive to inhibition; also recorded: resistant to inhibition; also recorded: insensitive
- inhibition of Arg-gingipain (in words) [2]: effective inhibitors

Molecule: CC(C)[C@@H](N)C(=O)N[C@@H](Cc1ccccc1)C(=O)N[C@@H](CCCCN)C(=O)Nc1ccc([N+](=O)[O-])cc1 [HD--Val--Phe--Lys--pNa, H-D-Val-Phe-Lys-pNa] (H-[dV]-Phe-Lys-pNA)
- Vmax [5]: 180 mmol/min

Molecule: N=C(N)c1ccc(N)cc1 [p-Aminobenzamidine]
- % Activity [1]: 100%
- inhibition of Lys-gingipain activity (in words) [1]: failed to inhibit
- inhibition of Arg-gingipain (in words) [2]: effective inhibitors

Molecule: N[C@@H](CS)C(=O)O [cysteine]
- Hemagglutinating Titer of Gingipain-1 with effector [6]: NHA
- effect on the hemagglutinating activity of purified fractions (in words) [6]: no effect
- concentration required for full activity [9]: 50 mM
- effect on enzyme [9]: denatured
- effectiveness as reducing agent for activation of the enzyme [9]: most effective reducing agent
- time after which activity could be detected [9]: 30 s
- time to full activation [9]: 5 min

Molecule: NCCCC[C@H](NC(=O)OCc1ccccc1)C(=O)Nc1ccc([N+](=O)[O-])cc1 [Z--L--Lys--pNa, Z-L-Lysine-p-Nitroanilide]
- Vmax [5]: 40 mmol/min

Molecule: O=S(=O)(F)Cc1ccccc1 [Phenylmethylsulfonyl fluoride]
- % Activity [1]: 100%
- inhibition of Lys-gingipain activity (in words) [1]: not sensitive to inhibition; also recorded: resistant to inhibition

B1: soybean trypsin inhibitor: soybean trypsin inhibitor (protein, UniProt P01070 25-205, looked up)
Trypsin inhibitor A: DFVLDNEGNPLENGGTYYILSDITAFGGIRAAPTGNERCPLTVVQSRNELDKGIGTIISSPYRIRFIAEGHPLSLKFDSFAVIMLCVGIPTEWSVVEDLPEGPAVKIGENKDAMDGWFRLERVSDDEFNNYKLVFCPQQAEDDKCGDIGISIDHDDGTRRLVVSKNKPLVVQFQKLDKESL
- effect on VPE by Lys-gingipain complex-treated human plasma [7]: inhibited
